The nature of data set [1]: Safety: treatment-emergent adverse events (TEAEs) in the pharmacokinetic study. The class given is in vivo, human. The protocol:
(§1) In this open-label, randomized study, subjects received the following treatments: • Two single oral doses of 100 mg (2×50 mg) Compound A adult immediate release tablet formulation, fasted state, administered on Day 1 and Day 12. • Repeat doses of phenytoin 100 mg TID for 10 days (from Day 3 until the morning of Day 12).
A total of 15 subjects (83%) reported 101 TEAEs over the course of the study. Three treatment periods were defined: Day 1 to Day 3 (following Compound A dosing on Day 1 and prior to start of phenytoin dosing on Day 3) corresponds to the Compound A treatment period, Day 3 to Day 12 (following phenytoin dosing on Day 3 and prior to Compound A dosing on Day 12) corresponds to the phenytoin treatment period, and Day 12 to the follow-up visit (following Compound A dosing on Day 12) corresponds to the Compound A in combination with phenytoin treatment period.

Data set [2] can be described thus: Urinary excretion and renal clearance of Compound A in the pharmacokinetic study. The class given is in vivo, human. To be noted: for mean amount excreted unchanged in urine / mean percentage of dose excreted unchanged in urine: over 48 hours following dosing. How it is done:
as §1
(§2) Subjects fasted overnight for a minimum of 10 hours prior to dosing on Day 1 and Day 12. An oral dose of the Compound A IR tablet treatment was administered in the morning with approximately 240 mL of water at ambient temperature, to 1 subject per 2 minute intervals. Fasting continued for at least 4 hours following administration. Water was provided as needed until 1 hour pre-dose. Water was allowed beginning 1 hour after the administration of the drug.
(§3) On Day 3 to Day 11, an oral dose of phenytoin was administered TID with approximately 240 mL of water at ambient temperature, starting at 07:30, 15:30, and 23:30 to 1 subject per 2 minute intervals. On Day 12, an oral dose of phenytoin was administered in the morning with approximately 240 mL of water at ambient temperature, starting at 07:30 (1 hour prior to Compound A dosing) to 1 subject per 2 minute intervals.
(§4) The direct measurements of this study were the plasma, whole blood, urine, and saliva concentrations of Compound A and plasma concentrations for phenytoin.

Data set [3] can be described thus: Open-label randomized pharmacokinetic drug-drug interaction study: plasma PK of Compound A alone or with phenytoin. The format is in vivo, human. To be noted: for Cmax / AUC / Tmax / AUC(0-t) / AUC(0-inf) / half-life: human, plasma; for Cmax / AUC / Tmax / half-life: 100 mg; for AUC(0-t): read-out: mean AUC0-t; for AUC(0-inf): read-out: mean AUC0-inf; for half-life: read-out: elimination half-life (converted). The protocol:
as §1, §2, §3, §4
The magnitude of DDI was described using GMR (with/without phenytoin) and associated 90% CI of the Cmax, AUC0-t, and AUC0-inf for Compound A.

Data set [4] has as its system CYP3A4, CYP2D6, CYP2C9. To be noted: has been reported; cited from earlier work.
[5] abbreviates: whole study (Compound A, phenytoin, combination).
Where [6] appears, read: Compound A 100 mg + phenytoin 100 mg TID.
The mark [7] stands for this setting: with phenytoin 100 mg TID for 10 days (Day 12) vs Compound A alone.
[8] abbreviates: with vs without phenytoin comparison.

Each structure is given as a SMILES string. Read-outs that look alike come from different tables or passages of the source.

In the case of `O=C1NC(=O)C(c2ccccc2)(c2ccccc2)N1` [phenytoin, reference compound], in data set [1] (phenytoin alone from Day 3 to Day 12), the “incidence of subjects with TEAEs” value worked out at 71%.

Consider `Cc1cc(S(=O)(=O)Nc2cscn2)c(F)cc1N(C)[C@H]1CCN(Cc2ccccc2)C1` [Compound A, (S)-4-((1-benzylpyrrolidin-3-yl)(methyl)amino)-2-fluoro-5-methyl-N-(thiazol-4-yl)benzenesulfonamide], for which the “incidence of subjects with TEAEs” value in data set [1] (Compound A alone on Day 1) is listed as 39%; in data set [1] (Compound A in combination with phenytoin on Day 12) it was 65%. Moreover, the “deaths or SAEs” value in data set [1] (setting [5]) is listed as “No deaths or SAEs occurred”. Besides, the “subjects reporting a severe TEAE” value in data set [1] (setting [5]) is given as “None”. Further, the “mean amount excreted unchanged in urine” value in data set [2] (setting [6]) turned out to be 57186 ng; in data set [2] (Compound A 100 mg alone), 71103 ng. Further, the “mean percentage of dose excreted unchanged in urine” value in data set [2] (setting [6]) is listed as 0.06%; in data set [2] (Compound A 100 mg alone) it was 0.07%. This molecule also yielded a CL renal in data set [2] (human, urine, oral, both treatments: presence (Day 12) or absence (Day 1) of phenytoin) of 0.05 to 0.0667 mL/min. In addition, the “CLr GMR” value in data set [2] (with/without phenytoin) stood at 100.25%. Moreover, the “effect of phenytoin 100 mg TID on Compound A total systemic exposure” value in data set [3] (90% CI of GMR for AUC0-t and AUC0-inf within no effect boundaries 80.00-125.00%) is “did not affect”. Also, the apparent clearance is reported as 5.4 L/h in data set [3] (Compound A alone) and 5.7 L/h in data set [3] (Compound A with phenytoin). Besides, the “apparent volume of distribution” value worked out at 89 L in data set [3] (Compound A alone) and 65 L in data set [3] (Compound A with phenytoin). Further, in data set [3] (co-administered with phenytoin 100 mg TID x 10 days vs Compound A alone), the “increase of peak plasma concentration (Cmax)” value is “approximately 22%”. The Cmax is 3300 ng/mL in data set [3] (oral, Compound A 100 mg alone, full sampling, read-out: mean Cmax); 3220 ng/mL in data set [3] (oral, Compound A 100 mg alone, truncated sampling, read-out: Cmax); 3720 ng/mL in data set [3] (oral, Compound A 100 mg with phenytoin 100 mg TID x 10 days, full sampling, read-out: mean Cmax); 3680 ng/mL in data set [3] (oral, Compound A with phenytoin 100 mg TID x 10 days, truncated sampling, read-out: Cmax). In addition, the AUC was 19900 ng·h/mL in data set [3] (oral, Compound A 100 mg alone, truncated sampling) and 18600 ng·h/mL in data set [3] (oral, Compound A with phenytoin 100 mg TID x 10 days, truncated sampling). Moreover, the Tmax is 1 h in data set [3] (oral, Compound A 100 mg alone, truncated sampling, read-out: Tmax); 1 h in data set [3] (oral, Compound A with phenytoin 100 mg TID x 10 days, truncated sampling, read-out: Tmax); approximately 1 h in data set [3] (po, Compound A 100 mg single oral dose alone (Day 1), fasted, full sampling, read-out: time to peak plasma concentrations (Tmax)); approximately 1 h in data set [3] (po, Compound A 100 mg single oral dose with phenytoin 100 mg TID for 10 days (Day 12), full sampling, read-out: time to peak plasma concentrations (Tmax)). Moreover, the AUC(0-t) came to 17800 ng·h/mL in data set [3] (oral, Compound A 100 mg + phenytoin 100 mg TID x 10 days, full sampling) and 19100 ng·h/mL in data set [3] (oral, Compound A 100 mg alone, full sampling). Besides, the AUC(0-inf) was 18000 ng·h/mL in data set [3] (oral, Compound A 100 mg + phenytoin 100 mg TID x 10 days) and 19800 ng·h/mL in data set [3] (oral, Compound A 100 mg alone). Besides, the half-life in data set [3] (po, Compound A alone) was 600 min; in data set [3] (po, Compound A with phenytoin), 480 min. Further, the “difference in AUC0-inf” value in data set [3] (setting [7]) is approximately 7%. Also, in data set [3] (setting [7]), the “difference in AUC0-t” value is recorded as “approximately 4%”. Also, the “intra-subject CV % of AUC0-inf” value in data set [3] (setting [8]) is reported as 22%. In data set [3] (setting [8]), the “intra-subject CV % of AUC0-t” value is on record as 26%. The “intra-subject CV % of Cmax” value in data set [3] (setting [8]) amounted to 53%. The “AUC0-inf GMR” value in data set [3] (with/without phenytoin, 90% CI 81.75-105.23%) is recorded as 92.75%. Also, in data set [3] (with/without phenytoin, 90% CI 82.54-111.67%), the “AUC0-t GMR” value is 96.01%. The “Cmax geometric mean ratio (GMR)” value in data set [3] (with/without phenytoin, 90% CI 90.94-162.38%) was 121.52%. Moreover, the “metabolizing CYP enzymes” value in data set [4] is “metabolized by CYP3A4, CYP2D6, and to a lesser extent CYP2C9”.

(Values after US20230405023A1, “USE OF THE NAV1.6 SODIUM CHANNEL BLOCKER (S)-4-((1-BENZYLPYRROLIDIN-3-YL)(METHYL)AMINO)-2-FLUORO-5-METHYL-N(THIAZOL-4-YL)BENZENESULFONAMIDE, TOGETHER WITH STRONG INDUCERS OF CYTOCHROME P450 3A4, IN THE TREATMENT OF CONDITIONS ASSOCIATED WITH NAVI.6 ACTIVITY” (Xenon Pharmaceuticals Inc., priority 2020, published 2023).)
